Values joined by “and” are separate entries in the source; they are usually repeats but may differ in a detail not shown here. Identical values can stand only once. Like-named read-outs stand apart in the source and are kept apart here.
What was measured:
[1] = target: Cav1.2 L-type Ca channels (Oryctolagus cuniculus, UniProt P15381); test: FLIPR Fluo-8 calcium assay, Cav1.2 channel inhibition in HEK293 cells
[2] = target: T1, Cav1.3 L-type Ca channels (Rattus norvegicus, UniProt P27732); test: FLIPR Fluo-8 calcium assay, Cav1.3 channel inhibition in HEK293 cells; type: cell-based; settings: for selectivity for Cav1.3 over Cav1.2: ratio of IC50 values for the two cell lines
T1 construct: expressed in transfected cells; host or cells: HEK293

[3] = target: T2, Cav1.2 (α1C) L-type calcium channel (Oryctolagus cuniculus, UniProt P15381); test: Whole-cell voltage-clamp recordings, Cav1.2 LTCC in HEK293 cells; type: cell-based, rabbit; settings: rabbit, pH 7.4; 5 μM, whole-cell voltage clamp; read-out: inhibition of Cav1.2 channels
T2 construct: expressed in transfected cells; host or cells: HEK-293, stably transfected
T2 sequence (P15381 whole entry): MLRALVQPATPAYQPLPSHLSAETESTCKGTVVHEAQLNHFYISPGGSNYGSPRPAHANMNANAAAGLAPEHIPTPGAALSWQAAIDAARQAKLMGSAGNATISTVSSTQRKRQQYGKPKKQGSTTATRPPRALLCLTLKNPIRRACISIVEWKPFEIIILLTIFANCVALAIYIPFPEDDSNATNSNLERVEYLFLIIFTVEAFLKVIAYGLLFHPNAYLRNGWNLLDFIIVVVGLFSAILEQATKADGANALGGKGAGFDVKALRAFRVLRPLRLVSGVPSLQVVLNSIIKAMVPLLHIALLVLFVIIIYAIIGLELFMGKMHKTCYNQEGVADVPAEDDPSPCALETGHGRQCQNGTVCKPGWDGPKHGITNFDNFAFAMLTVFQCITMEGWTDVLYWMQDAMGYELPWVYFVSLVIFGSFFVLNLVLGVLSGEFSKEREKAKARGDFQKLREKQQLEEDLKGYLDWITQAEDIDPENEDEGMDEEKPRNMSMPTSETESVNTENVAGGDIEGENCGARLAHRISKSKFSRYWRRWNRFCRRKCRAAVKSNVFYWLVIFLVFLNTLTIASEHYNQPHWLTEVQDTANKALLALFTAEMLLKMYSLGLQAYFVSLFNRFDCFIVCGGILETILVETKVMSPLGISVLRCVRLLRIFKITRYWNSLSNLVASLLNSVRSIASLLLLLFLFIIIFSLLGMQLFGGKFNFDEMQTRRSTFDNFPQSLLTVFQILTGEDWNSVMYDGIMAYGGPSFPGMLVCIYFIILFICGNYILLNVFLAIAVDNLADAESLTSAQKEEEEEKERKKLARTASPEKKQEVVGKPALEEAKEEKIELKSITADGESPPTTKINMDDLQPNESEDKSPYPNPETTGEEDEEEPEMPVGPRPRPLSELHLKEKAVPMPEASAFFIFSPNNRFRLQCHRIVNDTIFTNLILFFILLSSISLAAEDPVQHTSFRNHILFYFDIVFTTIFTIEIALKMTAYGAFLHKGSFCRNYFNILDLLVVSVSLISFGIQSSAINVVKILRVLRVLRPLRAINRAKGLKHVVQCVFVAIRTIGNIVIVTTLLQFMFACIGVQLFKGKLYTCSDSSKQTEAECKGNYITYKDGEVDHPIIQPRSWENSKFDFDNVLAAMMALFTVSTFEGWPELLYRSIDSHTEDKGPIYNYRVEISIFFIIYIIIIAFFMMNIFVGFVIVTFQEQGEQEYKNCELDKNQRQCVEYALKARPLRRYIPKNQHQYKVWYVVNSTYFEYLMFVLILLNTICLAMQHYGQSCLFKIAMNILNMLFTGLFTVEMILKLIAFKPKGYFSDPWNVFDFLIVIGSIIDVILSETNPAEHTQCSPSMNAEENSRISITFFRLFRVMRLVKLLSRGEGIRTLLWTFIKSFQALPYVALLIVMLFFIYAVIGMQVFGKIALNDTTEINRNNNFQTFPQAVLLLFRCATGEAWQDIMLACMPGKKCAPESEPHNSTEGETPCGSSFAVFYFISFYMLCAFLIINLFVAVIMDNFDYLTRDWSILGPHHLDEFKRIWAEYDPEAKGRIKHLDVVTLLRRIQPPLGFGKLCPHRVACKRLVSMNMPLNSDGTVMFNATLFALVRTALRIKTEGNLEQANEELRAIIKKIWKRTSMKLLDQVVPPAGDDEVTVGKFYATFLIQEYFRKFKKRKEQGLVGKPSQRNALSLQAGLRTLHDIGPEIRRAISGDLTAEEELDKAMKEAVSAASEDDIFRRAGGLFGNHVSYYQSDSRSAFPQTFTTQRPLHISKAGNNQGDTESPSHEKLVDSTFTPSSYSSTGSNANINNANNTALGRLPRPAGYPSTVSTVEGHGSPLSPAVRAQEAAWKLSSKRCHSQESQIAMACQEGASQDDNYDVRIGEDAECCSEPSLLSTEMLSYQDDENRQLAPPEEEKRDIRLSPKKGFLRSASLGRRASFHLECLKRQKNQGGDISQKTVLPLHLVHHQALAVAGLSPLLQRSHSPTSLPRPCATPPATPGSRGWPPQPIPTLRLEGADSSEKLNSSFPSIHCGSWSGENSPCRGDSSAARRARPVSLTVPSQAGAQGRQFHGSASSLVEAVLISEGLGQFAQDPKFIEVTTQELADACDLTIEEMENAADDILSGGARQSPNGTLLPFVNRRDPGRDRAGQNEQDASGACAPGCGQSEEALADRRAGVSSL
T2 sequence (P54284 whole entry partner): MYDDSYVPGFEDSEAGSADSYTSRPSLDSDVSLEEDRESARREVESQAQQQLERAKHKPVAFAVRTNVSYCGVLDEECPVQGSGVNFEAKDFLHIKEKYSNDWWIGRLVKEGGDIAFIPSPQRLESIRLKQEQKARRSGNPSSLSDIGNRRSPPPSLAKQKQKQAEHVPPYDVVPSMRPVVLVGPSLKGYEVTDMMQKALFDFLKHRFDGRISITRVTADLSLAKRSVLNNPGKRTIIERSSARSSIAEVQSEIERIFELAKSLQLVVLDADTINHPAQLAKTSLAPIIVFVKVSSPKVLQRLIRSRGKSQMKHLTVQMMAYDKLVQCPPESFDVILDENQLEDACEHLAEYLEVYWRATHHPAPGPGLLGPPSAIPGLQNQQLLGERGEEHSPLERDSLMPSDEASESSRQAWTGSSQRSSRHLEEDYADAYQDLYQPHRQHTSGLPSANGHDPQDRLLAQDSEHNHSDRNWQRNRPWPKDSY
T2 sequence (P54289 25-956 partner limits assumed): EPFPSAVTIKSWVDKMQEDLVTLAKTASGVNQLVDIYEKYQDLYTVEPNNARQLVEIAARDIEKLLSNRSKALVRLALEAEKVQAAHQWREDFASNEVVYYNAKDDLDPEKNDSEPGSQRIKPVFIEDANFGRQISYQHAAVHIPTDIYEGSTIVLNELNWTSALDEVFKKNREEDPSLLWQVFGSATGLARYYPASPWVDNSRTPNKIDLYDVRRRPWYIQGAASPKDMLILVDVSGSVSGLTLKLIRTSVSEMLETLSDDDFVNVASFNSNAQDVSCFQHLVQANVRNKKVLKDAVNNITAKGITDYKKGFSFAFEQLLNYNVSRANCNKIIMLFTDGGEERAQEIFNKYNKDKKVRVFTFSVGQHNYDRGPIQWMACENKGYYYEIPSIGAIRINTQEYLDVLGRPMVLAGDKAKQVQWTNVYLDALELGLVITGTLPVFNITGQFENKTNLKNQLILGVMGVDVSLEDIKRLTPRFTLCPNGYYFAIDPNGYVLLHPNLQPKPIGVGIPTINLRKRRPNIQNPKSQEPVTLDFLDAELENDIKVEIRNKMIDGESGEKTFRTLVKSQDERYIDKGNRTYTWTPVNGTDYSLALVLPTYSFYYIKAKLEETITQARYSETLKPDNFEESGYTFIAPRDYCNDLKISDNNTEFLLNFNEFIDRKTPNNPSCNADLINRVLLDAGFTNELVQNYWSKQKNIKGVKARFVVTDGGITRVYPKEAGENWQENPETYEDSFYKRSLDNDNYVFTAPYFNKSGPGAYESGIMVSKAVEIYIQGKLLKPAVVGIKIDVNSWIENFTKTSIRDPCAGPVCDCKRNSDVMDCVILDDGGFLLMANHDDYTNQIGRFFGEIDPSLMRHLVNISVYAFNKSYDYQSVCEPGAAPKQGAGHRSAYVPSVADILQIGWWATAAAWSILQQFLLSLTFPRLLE
T2 sequence (P54289 957-1103 partner limits assumed): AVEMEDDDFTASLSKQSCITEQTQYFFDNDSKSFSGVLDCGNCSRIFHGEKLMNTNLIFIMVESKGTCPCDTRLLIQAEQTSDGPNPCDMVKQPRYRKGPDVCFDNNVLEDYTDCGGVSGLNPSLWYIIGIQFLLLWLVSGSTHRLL
Procedure: (§1) Using the same cell lines from the initial screening, whole-cell voltage clamp recordings were made of either Cav1.3 LTCC or Cav1.2 LTCC containing HEK293 cells in the absence or presence of SKP00 4C08 at 1 μM. Bath application of SKP00 4C08 blocks ˜35% of the Cav1.3 channel current. SKP00 4C08 at the same concentration had no effect on Cav1.2 channel currents.
(§2) Bioactivity Confirmation Using Whole-cell Patch Clamp. Because IC50 values depend strongly on assay conditions, the inhibitory activity of compound 8 (SKP00 4C08) was confirmed at Cav1.3 and Cav1.2 channels in HEK293 cells by whole-cell voltage-clamp electrophysiological recordings (FIG. 8).
(§3) Whole-cell voltage-clamp recordings (FIG. 8A) were made in the absence (black, top) or presence (red, top) of compound 8 (SKP00 4C08) (5 μM). Superfusion of selected PYT blocks evoked barium currents in both LTCC cell lines in keeping with the data from our initial screen (FIG. 5B).
(§4) General Procedure for Whole-cell Patch Clamp. […] Barium currents were measured from whole-cell voltage patch-clamp recordings using a Pulse 8.4 software data acquisition system (HEKA, Germany). […] Electrophysiological signals were analyzed using […] […]

Cav1.2 (α1C) LTCC = target: T3, Cav1.2 (α1C) LTCC (Oryctolagus cuniculus, UniProt P15381); test: as above; type: cell-based, rabbit; settings: 1 μM
T3 construct: expressed in transfected cells; host or cells: HEK-293, stably transfected
T3 sequence (P15381 whole entry): as the sequence (P15381 whole entry) above
T3 sequence (P54284 whole entry partner): as the sequence (P54284 whole entry partner) above
T3 sequence (P54289 25-956 partner limits assumed): as the sequence (P54289 25-956 partner limits assumed) above
T3 sequence (P54289 957-1103 partner limits assumed): as the sequence (P54289 957-1103 partner limits assumed) above
Procedure: as §1, §2, §3, §4

Cav1.3 (α1D) LTCC = target: T4, Cav1.3 (α1D) LTCC (Rattus norvegicus, UniProt P27732); test: Whole-cell voltage-clamp recordings, Cav1.3 LTCC in HEK293 cells; type: cell-based
T4 construct: expressed in transfected cells; host or cells: HEK-293, stably transfected
Procedure: as §1, §2, §3
General Procedure for Whole-cell Patch Clamp. HEK-293 cells were stably transfected with rat Cav1.3 (α1D) or rabbit Cav1.2 (α1C), Cavβ3, and Cavα2δ-1 and were cultured as previously reported (Chan et al. (2007) Nature 447:1081-1086.; herein incorporated by reference in its entirety). After 24-48 h of incubation at 37° C., cells underwent whole-cell patch-clamp electrophysiology. The external solution contained the following (in mM): 140 NaCl, 1 MgCl2, 10 BaCl2, 10 HEPES, 10 dextrose, 10 sucrose, and 20 CsCl at pH 7.4 and an osmolarity of ˜320 mOSml^−1. The test compound stock solutions in DMSO (10 mM or just DMSO) were diluted with the external solution to the desired concentration (10^−9 to 10^−6M), which was perfused (2 mL/min) into the bath while measuring the evoked barium currents. For experiments where dose-response curves were obtained, local perfusion of the desired concentration was employed. Barium currents were measured from whole-cell voltage patch-clamp recordings using a Pulse 8.4 software data acquisition system (HEKA, Germany). […] Electrophysiological signals were analyzed using […] […]

[4] = IC50 (μM) CaV1.2, first library, FLIPR, HEK293, value (±SD)
[5] = IC50 (μM) Cav1.2, Table 4, 12 concentration points (0.1 nM~100 μM) in duplicate
[6] = IC50 (μM) CaV1.3, first library, FLIPR, HEK293, value (±SD)
[7] = IC50 (μM) Cav1.3, Table 4, 12 concentration points (0.1 nM~100 μM) in duplicate
[8] = Table 4, Cav1.3 relative to Cav1.2 from IC50 values
[9] = first library, ratio of IC50 Cav1.2 to Cav1.3
[10] = IC50 (μM) Cav1.2, second library, FLIPR, HEK293, value (±SD)
[11] = IC50 (μM) Cav1.3, second library, FLIPR, HEK293, value (±SD)
[12] = second library, ratio of IC50 Cav1.2 to Cav1.3
[13] = IC50 (μM) Cav1.2, third library, FLIPR, HEK293, value (±SD)
[14] = IC50 (μM) Cav1.3, third library, FLIPR, HEK293, value (±SD)
[15] = third library, ratio of IC50 Cav1.2 to Cav1.3

Chain of Cav1.2 L-type Ca channels (P15381 whole entry): as the sequence (P15381 whole entry) above
Chain of Cav1.2 L-type Ca channels (P54284 whole entry partner): as the sequence (P54284 whole entry partner) above
Chain of Cav1.2 L-type Ca channels (P54289 25-956 partner limits assumed): as the sequence (P54289 25-956 partner limits assumed) above
Chain of Cav1.2 L-type Ca channels (P54289 957-1103 partner limits assumed): as the sequence (P54289 957-1103 partner limits assumed) above

Compound | IC50 [1, 4] | IC50 [1, 5] | IC50 [2, 6] | IC50 [2, 7] | Selectivity [2, 8] | Selectivity [2, 9] | melting point | IC50 [2, 14] | Selectivity [2, 15] | further results
O=C1CC(=O)N(C2CCCCC2)C(=O)N1CCc1ccc(Cl)cc1 [Compound 1, N-(4-chlorophenethyl)-N′-cyclohexyl-pyrimidine-2,4,6-(1H,3H,5H)-trione] | 38.8 µM | 38.8 µM | 1.1 µM | 1.1 µM | 35 | 35.1 | 146 to 148 °C | – | – | –
Cc1cccc(CCN2C(=O)CC(=O)N(C3CCCCC3)C2=O)c1 [Compound 4, N-cyclohexyl-N′-(3-methylphenethyl)-pyrimidine-2,4,6-(1H,3H,5H)-trione] | – | 77.1 µM | – | 2.2 µM | 35 | – | 182 to 183 °C | – | – | IC50 [1, 10]: 77.1 µM; IC50 [2, 11]: 2.2 µM; Selectivity [2, 12]: 35.4
O=C1CC(=O)N(C2CCCCC2)C(=O)N1CCc1cccc(Br)c1 [Compound 5, N-(3-bromophenethyl)-N′-cyclohexyl-pyrimidine-2,4,6-(1H,3H,5H)-trione] | – | 45.8 µM | – | 1.3 µM | 34 | – | 154 to 155 °C | – | – | IC50 [1, 10]: 45.8 µM; IC50 [2, 11]: 1.3 µM; Selectivity [2, 12]: 34.0
O=C1CC(=O)N(C2CCCCC2)C(=O)N1CCc1cccc(Cl)c1 [Compound 3, N-(3-chlorophenethyl)-N′-cyclohexyl-pyrimidine-2,4,6-(1H,3H,5H)-trione] | 53.1 µM | 53.1 µM | 1.4 µM | 1.4 µM | 38 | 38.0 | 153 to 154 °C | – | – | –
O=C1CC(=O)N(C2CCCCC2)C(=O)N1CCc1cccc(C(F)(F)F)c1 [Compound 6, N-cyclohexyl-N′-(3-thrifluoromethylphenethyl)-pyrimidine-2,4,6-(1H,3H,5H)-trione] | – | 25.8 µM | – | 1.3 µM | 20 | – | 105 to 107 °C | – | – | IC50 [1, 10]: 25.8 µM; IC50 [2, 11]: 1.3 µM; Selectivity [2, 12]: 20.3
O=C1CC(=O)N(C2CCCC2)C(=O)N1CCc1cccc(Cl)c1 [Compound 8, N-(3-chlorophenethyl)-N′-cyclopentyl-pyrimidine-2,4,6-(1H,3H,5H)-trione] | – | 1730 µM | – | 1.7 µM | 1008 | – | 131 to 132 °C | 1.7 µM | 1008.2 | IC50 [1, 13]: 1730 µM; inhibition at 5 µM [3]: 3.8 ± 2.9%; effect on Cav1.2 channel currents (Cav1.2 (α1C) LTCC): no effect; IC50 ([2]; IC50 with Cav1.3): 1.61 µM and 1.7 µM; inhibition ratio Cav1.3 vs Cav1.2, FLIPR assay ([2]; at 5.5 (unit not given)): 11 fold; selectivity for Cav1.3 over Cav1.2 [2]: 1000 fold; selectivity for Cav1.3 over Cav1.2 ([2]; listed as SKP00 4C08): greater than 1000 fold; block of Cav1.3 channel current (Cav1.3 (α1D) LTCC; 1 μM, bath application): ~35%; inhibition ratio Cav1.3 vs Cav1.2 (Cav1.3 (α1D) LTCC; 5 μM, whole-cell voltage clamp): roughly 12 fold; inhibition at 5 µM (Cav1.3 (α1D) LTCC; HEK293, 5 μM, whole-cell voltage clamp, read-out: inhibition of Cav1.3 channels): 43.8 ± 11%
O=C1CC(=O)N(C2CCCC2)C(=O)N1CCCCc1ccccc1 [Compound 2, N-cyclopentyl-N′-(4-phenylbutyl)-pyrimidine-2,4,6-(1H,3H,5H)-trione] | 43.8 µM | 43.8 µM | 1.3 µM | 1.3 µM | 34 | 33.7 | 85 to 87 °C | – | – | –
O=C1CC(=O)N(C2CCCC2)C(=O)N1CCc1cccc(C(F)(F)F)c1 [Compound 7, N-cyclopentyl-N′-(3-thrifluoromethylphenethyl)-pyrimidine-2,4,6-(1H,3H,5H)-trione] | – | 326 µM | – | 1.1 µM | 305 | – | 97 to 98 °C | 1.1 µM | 305.4 | IC50 [1, 13]: 326 µM
O=C1CC(=O)N(CCc2ccc(Cl)cc2)C(=O)N1CCCc1ccccc1 [Compound 27] | 2.1 µM | – | 1.1 µM | – | – | 1.9 | – | – | – | –
O=C1CC(=O)N(C2CCCCC2)C(=O)N1CCc1ccccc1Cl [Compound 76] | – | – | – | – | – | – | – | – | – | IC50 [1, 10]: 44.5 µM; IC50 [2, 11]: 5.2 µM; Selectivity [2, 12]: 7.7
O=C1CC(=O)N(C2CC2)C(=O)N1CCc1cccc(Cl)c1 [Compound 101] | – | – | – | – | – | – | – | 26.8 µM | 0.2 | IC50 [1]: 5.4 µM
O=C1CC(=O)N(C23CC4CC(CC(C4)C2)C3)C(=O)N1CCc1cccc(Cl)c1 [Compound 115] | – | – | – | – | – | – | – | 2.6 µM | 0.7 | IC50 [1, 13]: 1.9 µM
O=C1CC(=O)N(C2CCCCCC2)C(=O)N1CCc1ccc(Cl)cc1 [Compound 92] | – | – | – | – | – | – | – | 2.2 µM | 15.0 | IC50 [1, 13]: 32.8 µM
O=C1CC(=O)N(CCc2ccc(Cl)c(Cl)c2)C(=O)N1CCCCc1ccccc1 [Compound 39] | 3.1 µM | – | 1.3 µM | – | – | 2.3 | – | – | – | –

Reference: US20210186970A1, “SELECTIVE CALCIUM CHANNEL ANTAGONISTS” (Northwestern University, priority 2011, published 2021)
